The values below come from patent US5679700A, “Substituted phosphinic acid-containing peptidyl derivatives as antidegenerative agents” (Merck & Co., Inc., priority 1995, dated 1997).

In experiment [1] the target is Human Fibroblast STROMELYSIN (Homo sapiens, UniProt P08254). The experiment can be described thus: biochemical. Conditions: SE in parentheses.
For the next experiment, the target named is T1, GELATINASE (Homo sapiens, UniProt P08253).
T1 sequence (P08253 110-660): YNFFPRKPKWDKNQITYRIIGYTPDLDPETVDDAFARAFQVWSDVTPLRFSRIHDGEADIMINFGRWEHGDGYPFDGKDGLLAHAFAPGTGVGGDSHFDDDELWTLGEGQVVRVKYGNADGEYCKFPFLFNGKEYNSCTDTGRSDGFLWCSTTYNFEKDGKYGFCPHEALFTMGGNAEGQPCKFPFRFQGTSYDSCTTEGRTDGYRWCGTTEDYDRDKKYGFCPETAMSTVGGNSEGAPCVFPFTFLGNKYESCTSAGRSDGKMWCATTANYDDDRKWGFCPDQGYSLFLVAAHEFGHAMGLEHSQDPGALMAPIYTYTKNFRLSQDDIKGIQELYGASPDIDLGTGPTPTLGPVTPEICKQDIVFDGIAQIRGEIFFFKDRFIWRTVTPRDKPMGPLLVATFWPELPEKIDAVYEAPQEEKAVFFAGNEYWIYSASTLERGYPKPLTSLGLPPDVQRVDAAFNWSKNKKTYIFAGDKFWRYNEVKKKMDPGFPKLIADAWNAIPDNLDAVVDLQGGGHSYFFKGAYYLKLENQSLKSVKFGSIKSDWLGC
The experiment can be described thus: inhibition of cleavage of fluorogenic peptide DNP-Pro-Leu-Gly-Leu-Trp-Ala-(D)-Arg-NH2 by gelatinase. It counts as biochemical. The note with it: Human Fibroblast; SE in parentheses.

Experiment [2] concerns the target human rheumatoid synovial collagenase. The note with it: cited from earlier work.
Experiment [3] addresses rabbit bone proteoglycanase. Conditions: cited from earlier work.
For another experiment, the target named is T2, COLLAGENASE (Homo sapiens, UniProt P03956).
T2 sequence (P03956 100-469): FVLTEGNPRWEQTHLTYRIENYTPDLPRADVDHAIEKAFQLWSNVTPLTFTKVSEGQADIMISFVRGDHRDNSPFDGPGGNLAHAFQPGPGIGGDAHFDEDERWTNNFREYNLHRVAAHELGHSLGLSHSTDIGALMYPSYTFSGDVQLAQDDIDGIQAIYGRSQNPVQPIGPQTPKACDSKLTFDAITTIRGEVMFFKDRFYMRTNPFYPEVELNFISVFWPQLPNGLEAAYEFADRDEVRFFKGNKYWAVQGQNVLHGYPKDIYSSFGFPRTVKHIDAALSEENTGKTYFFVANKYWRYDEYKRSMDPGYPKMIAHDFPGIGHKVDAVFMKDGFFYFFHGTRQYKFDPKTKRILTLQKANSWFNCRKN
The experiment is described as follows: inhibition of cleavage of fluorogenic peptide DNP-Pro-Leu-Gly-Leu-Trp-Ala-(D)-Arg-NH2 by collagenase. It counts as biochemical. Conditions: Human Fibroblast; SE in parentheses where printed.

Chain of Human Fibroblast STROMELYSIN (P08254 100-477): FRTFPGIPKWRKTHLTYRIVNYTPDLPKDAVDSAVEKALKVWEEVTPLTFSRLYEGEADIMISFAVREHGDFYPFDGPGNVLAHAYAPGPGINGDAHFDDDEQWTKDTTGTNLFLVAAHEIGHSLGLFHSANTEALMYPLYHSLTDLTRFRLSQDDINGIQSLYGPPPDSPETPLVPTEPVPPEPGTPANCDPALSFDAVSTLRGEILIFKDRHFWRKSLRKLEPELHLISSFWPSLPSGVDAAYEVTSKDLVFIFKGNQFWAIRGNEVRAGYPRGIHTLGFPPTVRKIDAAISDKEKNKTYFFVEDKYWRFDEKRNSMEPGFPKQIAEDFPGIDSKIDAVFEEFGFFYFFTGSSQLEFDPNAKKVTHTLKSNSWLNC

For orientation: Ki means a dissociation constant, usually derived from enzyme kinetics or from competition with a known ligand. In the case of `CC(C)C[C@H](NC(=O)C(CCc1ccccc1)CP(=O)(O)CCCCNC(=O)NC(C)C)C(=O)Nc1ccccc1` (some centres unmarked) [(CH2)4 NCHCONH-i-C3 H7], the inhibitory constant (Ki) in experiment [1] was 0.022 µM; on GELATINASE it was 0.0056 µM.

For the molecule `CC(C)COC(=O)NCCCCP(=O)(O)CC(CCc1ccccc1)C(=O)N[C@@H](CC(C)C)C(=O)Nc1ccccc1` (some centres unmarked) [(CH2)4 NCO2 -i-C4 H4], the inhibitory constant (Ki) in experiment [1] was 0.019 µM; on GELATINASE, 0.034 µM.

In general, IC50 refers to the concentration at which inhibition is half-maximal. For `CNC(=O)[C@H](Cc1ccc(OC)cc1)NC(=O)[C@H](CC(C)C)NC(CCNC(=O)OCc1ccccc1)C(=O)O` (stereo partly drawn) [N-[3-(benzyloxycarbonyl)amino-1-carboxy-n-propyl]-L-leucyl-O-methyl-L-tyrosine, N-methylamide], the IC50 was 800 nM in experiment [2] and 500 nM in experiment [3].

Turning to `CC(C)C[C@H](NC(=O)C(CCc1ccccc1)CP(=O)(O)CCCCN1C(=O)c2ccccc2C1=O)C(=O)Nc1ccccc1` (stereo partly drawn) [(CH2)4 NPhth, (2-(((4-(1,3-Dihydro-1,3-dioxo-2H-isoindol-2-yl)butyl)hydroxyphosphinyl)methyl)-4-phenylbutanoyl)-L-leucine N-phenylamide], the Ki came to 1000 nM at COLLAGENASE and 0.026 µM on GELATINASE.

As for `CC(=O)N1CCC[C@H]1C(=O)N[C@@H](C)C(=O)N[C@@H](C)P(=O)(O)CC(CCc1ccccc1)C(=O)N[C@@H](CC(C)C)C(=O)Nc1ccccc1` (stereo partly drawn) [(R)CH(CH3)NHAlaProAc, [[Hydroxy[1(R)-[N-(N-acetyl-L-prolyl-L-alanyl)-amino]-ethyl]-phosphinyl]-methyl]-4-phenylbutanoyl-L-leucyl N-phenylamide], the Ki is 0.0061 µM in experiment [1], 2900 nM on COLLAGENASE and 0.0026 µM on GELATINASE.
